Experiments:
[1] = system: crushed spinal cord ventral white matter strip; assay: Potassium channel blockade (4-AP) as adjunct to PEG-mediated recovery of CAP conduction; design: species or system guinea pig; details: for Enhancement of recovered CAP by 4-AP, group data: 5 cords; for Enhancement of recovered CAP by 4-AP: reversible
Procedure: The above-described technique should be considered as a basic one, from which testing of several variations described below was performed. For example, tests were made of the response of “recovering” axons to the additional application of the fast potassium channel blocker, 4 aminopyridine (4-AP). In this trial, 5 separate cords were treated with an application of PEG as described above and compared to 5 control cords. One hour after compression, 100 pM 4-AP (in Krebs' solution) was applied for 15 minutes and then washed free with normal Krebs' solution as described above.
Spinal cords were crushed, isolated and treated with PEG as described in Example 1. Analysis was also performed in the double sucrose recording chamber as described in Example 1.

[2] = system: crushed spinal cord ventral white matter strip; details: in vitro; Shi and Borgens 1999; cited from earlier work

## Nc1ccncc1 [4-AP, 4-aminopyridine]
[1]; PEG-treated (experimental) group
  Enhancement of recovered CAP by 4-AP, group data: about 70%
[1]; PEG-treated cord, 4-AP at 1 hour post PEG application, individual test
  Enhancement of recovered CAP by 4-AP: about 70%
[1]; control group (crushed, no PEG)
  Enhancement of recovered CAP by 4-AP, group data: about 40%
[1]; crushed cord untreated with PEG, 100 pM 4-AP at 1 hour post injury, single test
  Enhancement of recovered CAP by 4-AP: about 40%
[2]
  Magnitude of the recovered CAP after local 4-aminopyridine in PEG-repaired cord: nearly doubles
